In patent US6914045B2, “Glycopeptide antibiotics” (Wyeth Holdings Corporation, priority 2001, dated 2005):
In brackets after ≈: the same amount, converted by molar mass.

Key:
Assay in all cases: in vitro antibacterial evaluation, MIC by broth dilution
Format in all cases: cell-based
Escherichia coli = conditions: 18 hours at 35° C.
Enterococcus sp. = conditions: broth dilution, 18 hours at 35° C.
Summary of the method: (§1)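 Broth dilution per NCCLS standard M7-A2 in Muller-Hinton II […], with an inoculum of 5×10^5 CFU/mL and antibiotic spanning 64-0.06 μg/mL. The MIC is the lowest concentration that inhibits growth of the organism.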

Streptococcus sp. = conditions: broth dilution, 18 hours at 35° C.
Summary of the method: as §1

Staphylococcus sp. = conditions: broth dilution, 18 hours at 35° C.; for MIC Staphylococcus aureus (GC 1131): strain GC 1131
Summary of the method: as §1

CC(c1ccccc1)C1NC(=O)CNC(=O)C(CO)NC(=O)C(C(O)C2CNC(=N)N2C2OC(CO)C(O)C(O)C2O)NC(=O)C(C(O)C2CNC(=N)N2)NC(=O)C(Cc2ccc(OC3OC(CO)C(OC4OC5COC6(CCCCC6)OC5C(O)C4O)C(O)C3O)cc2)NC1=O (centres unmarked) [Example 203]
MIC Escherichia coli (ATCC 25922) (Escherichia coli): 64 µg/mL (≈ 46.5 µM)
MIC Escherichia coli (GC 4559) (Escherichia coli): 32 µg/mL (≈ 23.3 µM)
MIC Escherichia coli (GC 4560) (Escherichia coli): 2 µg/mL (≈ 1.45 µM)
MIC Enterococcus avium (GC 4558) (Enterococcus sp.): 8 µg/mL (≈ 5.82 µM)
MIC Enterococcus faecalis (ATCC 29212) (Enterococcus sp.): 8 µg/mL (≈ 5.82 µM)
MIC Enterococcus faecalis (GC 2242) (Enterococcus sp.): 4 µg/mL (≈ 2.91 µM)
MIC Enterococcus faecalis (GC 2691) (Enterococcus sp.): 8 µg/mL (≈ 5.82 µM)
MIC Enterococcus faecalis (GC 3059) (Enterococcus sp.): 8 µg/mL (≈ 5.82 µM)
MIC Enterococcus faecalis (GC 4552) (Enterococcus sp.): 8 µg/mL (≈ 5.82 µM)
MIC Enterococcus faecalis (GC 4553) (Enterococcus sp.): 8 µg/mL (≈ 5.82 µM)
MIC Enterococcus faecalis (GC 4554) (Enterococcus sp.): 8 µg/mL (≈ 5.82 µM)
MIC Enterococcus faecalis (GC 6189) (Enterococcus sp.): 8 µg/mL (≈ 5.82 µM)
MIC Enterococcus faecium (GC 2243) (Enterococcus sp.): 8 µg/mL (≈ 5.82 µM)
MIC Enterococcus faecium (GC 4556) (Enterococcus sp.): 4 µg/mL (≈ 2.91 µM)
MIC Enterococcus faecium (GC 4557) (Enterococcus sp.): 4 µg/mL (≈ 2.91 µM)
MIC Enterococcus faecalis (ATCC 29212) (Enterococcus sp.; inoculum 5×10^5 CFU/mL, strain ATCC 29212): 8 µg/mL (≈ 5.82 µM)
MIC Enterococcus faecalis (GC 2242) (Enterococcus sp.; inoculum 5×10^5 CFU/mL, strain GC 2242): 4 µg/mL (≈ 2.91 µM)
MIC Enterococcus faecium (GC 2243) (Enterococcus sp.; inoculum 5×10^5 CFU/mL, strain GC 2243): 8 µg/mL (≈ 5.82 µM)
MIC Enterococcus faecalis (GC 2691) (Enterococcus sp.; inoculum 5×10^5 CFU/mL, strain GC 2691): 8 µg/mL (≈ 5.82 µM)
MIC Enterococcus faecalis (GC 3059) (Enterococcus sp.; inoculum 5×10^5 CFU/mL, strain GC 3059): 8 µg/mL (≈ 5.82 µM)
MIC Enterococcus faecalis (GC 4552) (Enterococcus sp.; inoculum 5×10^5 CFU/mL, strain GC 4552): 8 µg/mL (≈ 5.82 µM)
MIC Enterococcus faecalis (GC 4553) (Enterococcus sp.; inoculum 5×10^5 CFU/mL, strain GC 4553): 8 µg/mL (≈ 5.82 µM)
MIC Enterococcus faecalis (GC 4554) (Enterococcus sp.; inoculum 5×10^5 CFU/mL, strain GC 4554): 8 µg/mL (≈ 5.82 µM)
MIC Enterococcus faecium (GC 4556) (Enterococcus sp.; inoculum 5×10^5 CFU/mL, strain GC 4556): 4 µg/mL (≈ 2.91 µM)
MIC Enterococcus faecium (GC 4557) (Enterococcus sp.; inoculum 5×10^5 CFU/mL, strain GC 4557): 4 µg/mL (≈ 2.91 µM)
MIC Enterococcus avium (GC 4558) (Enterococcus sp.; inoculum 5×10^5 CFU/mL, strain GC 4558): 8 µg/mL (≈ 5.82 µM)
MIC Enterococcus faecalis (GC 6189) (Enterococcus sp.; inoculum 5×10^5 CFU/mL, strain GC 6189): 8 µg/mL (≈ 5.82 µM)
MIC Streptococcus agalactiae (GC 4564) (Streptococcus sp.): 1 µg/mL (≈ 0.727 µM)
MIC Streptococcus pneumoniae (ATCC 6301) (Streptococcus sp.): 0.5 µg/mL (≈ 0.364 µM)
MIC Streptococcus pneumoniae (GC 1894) (Streptococcus sp.): 0.12 µg/mL (≈ 0.0872 µM)
MIC Streptococcus pneumoniae (GC 4565) (Streptococcus sp.): 0.25 µg/mL (≈ 0.182 µM)
MIC Streptococcus pyogenes (GC 4563) (Streptococcus sp.): 0.5 µg/mL (≈ 0.364 µM)
MIC Streptococcus pneumoniae (ATCC 6301) (Streptococcus sp.; inoculum 5×10^5 CFU/mL, strain ATCC 6301): 0.5 µg/mL (≈ 0.364 µM)
MIC Streptococcus pneumoniae (GC 1894) (Streptococcus sp.; inoculum 5×10^5 CFU/mL, strain GC 1894): 0.12 µg/mL (≈ 0.0872 µM)
MIC Streptococcus pyogenes (GC 4563) (Streptococcus sp.; inoculum 5×10^5 CFU/mL, strain GC 4563): 0.5 µg/mL (≈ 0.364 µM)
MIC Streptococcus agalactiae (GC 4564) (Streptococcus sp.; inoculum 5×10^5 CFU/mL, strain GC 4564): 1 µg/mL (≈ 0.727 µM)
MIC Streptococcus pneumoniae (GC 4565) (Streptococcus sp.; inoculum 5×10^5 CFU/mL, strain GC 4565): 0.25 µg/mL (≈ 0.182 µM)
MIC Staphylococcus aureus (GC 1131) (Staphylococcus sp.; inoculum 5×10^5 CFU/mL): 2 µg/mL (≈ 1.45 µM)
MIC Staphylococcus aureus (ATCC 29213) (Staphylococcus sp.; strain ATCC 29213): 1 µg/mL (≈ 0.727 µM)
MIC Staphylococcus aureus (GC 1131) (Staphylococcus sp.): 2 µg/mL (≈ 1.45 µM)
MIC Staphylococcus aureus (GC 3051) (Staphylococcus sp.; strain GC 3051): 2 µg/mL (≈ 1.45 µM)
MIC Staphylococcus aureus (GC 3053) (Staphylococcus sp.; strain GC 3053): 4 µg/mL (≈ 2.91 µM)
MIC Staphylococcus aureus (GC 4541) (Staphylococcus sp.; strain GC 4541): 1 µg/mL (≈ 0.727 µM)
MIC Staphylococcus aureus (GC 4542) (Staphylococcus sp.; strain GC 4542): 1 µg/mL (≈ 0.727 µM)
MIC Staphylococcus aureus-SMITH (GC 4543) (Staphylococcus sp.; strain GC 4543): 2 µg/mL (≈ 1.45 µM)
MIC Staphylococcus aureus (GC 4544) (Staphylococcus sp.; strain GC 4544): 2 µg/mL (≈ 1.45 µM)
MIC Staphylococcus aureus (GC 4545) (Staphylococcus sp.; strain GC 4545): 1 µg/mL (≈ 0.727 µM)
MIC Staphylococcus haemolyticus (GC 4546) (Staphylococcus sp.; strain GC 4546): 1 µg/mL (≈ 0.727 µM)
MIC Coagulase Negative Staphylococcus (GC 4547) (Staphylococcus sp.; strain GC 4547): 2 µg/mL (≈ 1.45 µM)
MIC Coagulase Negative Staphylococcus (GC 4548) (Staphylococcus sp.; strain GC 4548): 1 µg/mL (≈ 0.727 µM)
MIC Coagulase Negative Staphylococcus (GC 4549) (Staphylococcus sp.; strain GC 4549): 1 µg/mL (≈ 0.727 µM)
MIC Coagulase Negative Staphylococcus (GC 4551) (Staphylococcus sp.; strain GC 4551): 2 µg/mL (≈ 1.45 µM)
MIC Coagulase Negative Staphylococcus (GC 6257) (Staphylococcus sp.; strain GC 6257): 1 µg/mL (≈ 0.727 µM)
